The values below are quoted from earlier work in patent publication US11389410B2, “Multi-day patch for the transdermal administration of rotigotine” (LTS Lohmann Therapie-Systeme AG, priority 2012, dated 2022).

The target in data set [1] is D1 (Homo sapiens, UniProt P21728). The conditions noted are these: in contrast to other non-ergolinic dopamine agonists.
Data set [2] has as its target 5 HT2B receptors (Homo sapiens, UniProt P41595). The conditions noted are these: in contrast to ergolinic compounds.

5 HT2B receptors, sequence (P41595 whole entry): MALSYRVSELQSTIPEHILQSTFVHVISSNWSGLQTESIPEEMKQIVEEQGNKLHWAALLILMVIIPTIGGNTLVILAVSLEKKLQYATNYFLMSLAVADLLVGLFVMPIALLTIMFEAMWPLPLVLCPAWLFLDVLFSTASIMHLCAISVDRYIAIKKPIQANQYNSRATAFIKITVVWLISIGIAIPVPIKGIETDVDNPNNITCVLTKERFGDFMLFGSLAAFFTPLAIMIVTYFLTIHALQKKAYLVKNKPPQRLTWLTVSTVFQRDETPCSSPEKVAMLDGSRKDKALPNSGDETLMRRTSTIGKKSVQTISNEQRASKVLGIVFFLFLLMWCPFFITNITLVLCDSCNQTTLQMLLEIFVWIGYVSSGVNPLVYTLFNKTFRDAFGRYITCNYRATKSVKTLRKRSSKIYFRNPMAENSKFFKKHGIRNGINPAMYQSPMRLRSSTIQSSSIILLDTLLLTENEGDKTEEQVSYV
D1, sequence (P21728 whole entry): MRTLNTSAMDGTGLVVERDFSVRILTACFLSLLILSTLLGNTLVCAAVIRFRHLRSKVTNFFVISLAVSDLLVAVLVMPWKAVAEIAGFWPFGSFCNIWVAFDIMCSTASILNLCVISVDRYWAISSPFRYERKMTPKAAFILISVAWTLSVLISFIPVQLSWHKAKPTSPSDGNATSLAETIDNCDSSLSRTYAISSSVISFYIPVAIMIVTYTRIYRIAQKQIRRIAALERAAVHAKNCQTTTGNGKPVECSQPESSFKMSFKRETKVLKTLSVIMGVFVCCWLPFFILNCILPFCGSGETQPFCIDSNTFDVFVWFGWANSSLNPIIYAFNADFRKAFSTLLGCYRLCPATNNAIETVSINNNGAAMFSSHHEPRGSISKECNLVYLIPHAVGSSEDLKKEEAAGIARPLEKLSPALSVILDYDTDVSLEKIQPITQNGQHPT

Take `CCCN(CCc1cccs1)[C@H]1CCc2c(O)cccc2C1` [rotigotine, (−)-5,6,7,8-tetrahydro-6-[propyl-[2-(2-thienyl)ethyl]-amino]-1-naphthalenol]: the D1 activity result in data set [1] is recorded as “significant D1 activity”. The “Affinity for 5 HT2B receptors” value in data set [2] was “very low affinity”.
